Assays:
Influenza A virus [1] = assay: Antiviral activity against Influenza A virus A/Puerto Rico/8/34 (H1N1) infected in MDCK cells assessed as inhibition of viral replication; format: functional, organism-based
[2] = Cytotoxicity against MDCK cells infected with Influenza A virus A/Puerto Rico/8/34 (H1N1) assessed as reduction in cell viability; format: toxicity, cell-based, Canis lupus familiaris; conditions: dog
[3] = Selectivity index, ratio of CC50 for cytotoxicity against MDCK cells infected with Influenza A virus A/Puerto Rico/8/34 (H1N1) to IC50 for antiviral activity against Influenza A virus A/Puerto Rico/8/34 (H1N1) infected in MDCK cells; format: toxicity, cell-based; conditions: dog; read-out: Ratio CC50/IC50
Influenza A virus [4] = assay: Antiviral activity against Influenza A virus A/Anhui/1/2013 (H7N9) infected in MDCK cells assessed as inhibition of viral replication; format: functional, organism-based
[5] = Cytotoxicity against MDCK cells infected with Influenza A virus A/Anhui/1/2013 (H7N9) assessed as reduction in cell viability; format: toxicity, cell-based, Canis lupus familiaris; conditions: dog
[6] = Selectivity index, ratio of CC50 for cytotoxicity against MDCK cells infected with Influenza A virus A/Anhui/1/2013 (H7N9) to IC50 for antiviral activity against Influenza A virus A/Anhui/1/2013 (H7N9) infected in MDCK cells; format: toxicity, cell-based; conditions: dog; read-out: Ratio CC50/IC50
Influenza A virus [7] = assay: Anti-membranotropic activity in Influenza A virus A/Puerto Rico/8/34 (H1N1) infected in chicken erythrocytes assessed as inhibition of hemagglutinin-driven membrane disruption incubated for 30 mins followed by infection in chicken erythrocytes; format: functional, organism-based; conditions: Erythrocyte, DDE = dose-dependent effect

CC(C)/C(N)=N/OC(=O)[C@]12CC[C@H](CC1=O)C2(C)C
IC50 (Influenza A virus [1]): 50 µM
CC50 [2]: 730 µM
selectivity ratio [3]: 14

CC1(C)[C@@H]2CC[C@@]1(c1nc(-c3ccc(Cl)cc3)no1)C(=O)C2
IC50 (Influenza A virus [1]): 33 µM
CC50 [2]: 52 µM
selectivity ratio [3]: 2

CC1(C)[C@@H]2CC[C@@]1(C(=O)O/N=C(\N)Cc1ccccc1F)C(=O)C2
IC50 (Influenza A virus [1]): 124 µM
CC50 [2]: 877 µM
selectivity ratio [3]: 7

CC1(C)[C@@H]2CC[C@@]1(C(=O)O/N=C(\N)c1ccc(C(F)(F)F)cc1)C(=O)C2
IC50 (Influenza A virus [1]): 547 µM
CC50 [2]: > 1060 µM
selectivity ratio [3]: > 2

CC(C)(C)c1noc([C@]23CC[C@H](CC2=O)C3(C)C)n1
IC50 (Influenza A virus [1]): > 382 µM
CC50 [2]: 1140 µM
selectivity ratio [3]: < 3

CC1(C)[C@@H]2CC[C@@]1(c1nc(-c3ccc(Br)cc3)no1)C(=O)C2
IC50 (Influenza A virus [1]): 6 µM
CC50 [2]: 37 µM
selectivity ratio [3]: 6

C/C(N)=N/OC(=O)[C@]12CC[C@H](CC1=O)C2(C)C
IC50 (Influenza A virus [1]): 175 µM
CC50 [2]: 545 µM
selectivity ratio [3]: 3

CC1(C)[C@@H]2CC[C@@]1(C(=O)O/N=C(\N)c1ccccn1)C(=O)C2
IC50 (Influenza A virus [4]): 110 µM
IC50 (Influenza A virus [1]): 18 µM
CC50 [2]: 751 µM
selectivity ratio [3]: 42
CC50 [5]: 688 µM
selectivity ratio [6]: 6

CC1(C)[C@@H]2CC[C@@]1(c1nc(-c3ccncc3)no1)C(=O)C2
IC50 (Influenza A virus [4]): > 353 µM
IC50 (Influenza A virus [1]): 25 µM
CC50 [2]: 1000 µM
selectivity ratio [3]: 40
CC50 [5]: 1110 µM
selectivity ratio [6]: 3

CN(C)C/C(N)=N/OC(=O)[C@]12CC[C@H](CC1=O)C2(C)C
IC50 (Influenza A virus [1]): 52 µM
CC50 [2]: 433 µM
selectivity ratio [3]: 8

CC(C)(C)/C(N)=N/OC(=O)[C@]12CC[C@H](CC1=O)C2(C)C
IC50 (Influenza A virus [1]): 975 µM
CC50 [2]: > 1140 µM
selectivity ratio [3]: 1

CC1(C)[C@@H]2CC[C@@]1(c1nc(Cc3ccc(Br)cc3)no1)C(=O)C2
IC50 (Influenza A virus [4]): 267 µM
IC50 (Influenza A virus [1]): 13 µM
CC50 [2]: > 792 µM
selectivity ratio [3]: > 60
CC50 [5]: > 800 µM
selectivity ratio [6]: 3

CN(C)Cc1noc([C@]23CC[C@H](CC2=O)C3(C)C)n1
IC50 (Influenza A virus [1]): 913 µM
CC50 [2]: > 1190 µM
selectivity ratio [3]: 1

CC1(C)[C@@H]2CC[C@@]1(c1nc(-c3ccc(F)cc3)no1)C(=O)C2
IC50 (Influenza A virus [4]): 30 µM
IC50 (Influenza A virus [1]): 4 µM
CC50 [2]: 270 µM
selectivity ratio [3]: 74
CC50 [5]: 203 µM
selectivity ratio [6]: 7

CCC(CC)O[C@@H]1C=C(C(=O)O)C[C@H](N)[C@H]1NC(C)=O [OSELTAMIVIR CARBOXYLATE]
IC50 (Influenza A virus [4]): 0.16 µM
IC50 (Influenza A virus [1]): 0.18 µM
CC50 [2]: > 100 µM
CC50 [5]: > 100 µM
selectivity ratio [6]: > 625

CC1(C)[C@@H]2CC[C@@]1(C(=O)O/N=C(\N)c1ccc(Br)cc1)C(=O)C2
IC50 (Influenza A virus [4]): 3 µM
IC50 (Influenza A virus [1]): 13 µM
CC50 [2]: 387 µM
selectivity ratio [3]: 31
CC50 [5]: 354 µM
selectivity ratio [6]: 118

CC1(C)[C@@H]2CC[C@@]1(c1nc(-c3cccc(F)c3)no1)C(=O)C2
IC50 (Influenza A virus [4]): 93 µM
IC50 (Influenza A virus [1]): 6 µM
CC50 [2]: > 1280 µM
selectivity ratio [3]: > 231
CC50 [5]: > 1000 µM
selectivity ratio [6]: 11

CC1(C)[C@@H]2CC[C@@]1(C(=O)O/N=C(\N)c1ccc(Cl)cc1)C(=O)C2
IC50 (Influenza A virus [4]): > 30 µM
IC50 (Influenza A virus [1]): 14 µM
CC50 [2]: 239 µM
selectivity ratio [3]: 17
CC50 [5]: 75 µM
selectivity ratio [6]: 3

Cc1noc([C@]23CC[C@H](CC2=O)C3(C)C)n1
IC50 (Influenza A virus [1]): > 904 µM
CC50 [2]: > 904 µM

CC1(C)[C@@H]2CC[C@@]1(c1nc(-c3ccccn3)no1)C(=O)C2
IC50 (Influenza A virus [1]): > 1000 µM
CC50 [2]: > 1000 µM

CC1(C)[C@@H]2CC[C@@]1(C(=O)O/N=C(\N)c1ccncc1)C(=O)C2
IC50 (Influenza A virus [1]): 78 µM
CC50 [2]: 846 µM
selectivity ratio [3]: 11

CC1(C)[C@@H]2CC[C@@]1(C(=O)O/N=C(\N)Cc1ccc(Cl)cc1)C(=O)C2
IC50 (Influenza A virus [1]): 15 µM
CC50 [2]: 73 µM
selectivity ratio [3]: 5

CC1(C)[C@@H]2CC[C@@]1(C(=O)O/N=C(\N)c1ccc(F)cc1)C(=O)C2
IC50 (Influenza A virus [4]): > 94 µM
IC50 (Influenza A virus [1]): 8 µM
CC50 [2]: 236 µM
selectivity ratio [3]: 29
CC50 [5]: 94 µM
selectivity ratio [6]: 1

CCc1noc([C@]23CC[C@H](CC2=O)C3(C)C)n1
IC50 (Influenza A virus [1]): 193 µM
CC50 [2]: > 763 µM
selectivity ratio [3]: > 4

CC/C(N)=N/OC(=O)[C@]12CC[C@H](CC1=O)C2(C)C
IC50 (Influenza A virus [1]): 162 µM
CC50 [2]: 807 µM
selectivity ratio [3]: 5

CC1(C)[C@@H]2CC[C@@]1(C(=O)O/N=C(\N)c1ccccc1F)C(=O)C2
IC50 (Influenza A virus [1]): 46 µM
CC50 [2]: 238 µM
selectivity ratio [3]: 5

CC1(C)[C@@H]2CC[C@@]1(C(=O)O/N=C(\N)c1cccc(F)c1)C(=O)C2
IC50 (Influenza A virus [4]): 21 µM
IC50 (Influenza A virus [1]): 6 µM
CC50 [2]: 155 µM
selectivity ratio [3]: 26
CC50 [5]: 79 µM
selectivity ratio [6]: 4

CC1(C)[C@@H]2CC[C@@]1(c1nc(Cc3cccc(F)c3)no1)C(=O)C2
IC50 (Influenza A virus [4]): > 105 µM
IC50 (Influenza A virus [1]): 7 µM
CC50 [2]: 411 µM
selectivity ratio [3]: 56
CC50 [5]: 344 µM
Activity (Influenza A virus [7]): Dde
selectivity ratio [6]: 3

CC1(C)[C@@H]2CC[C@@]1(C(=O)O/N=C(\N)c1cccnc1)C(=O)C2
IC50 (Influenza A virus [4]): > 332 µM
IC50 (Influenza A virus [1]): 104 µM
CC50 [2]: > 997 µM
selectivity ratio [3]: > 10
CC50 [5]: 831 µM
selectivity ratio [6]: 3

CC1(C)[C@@H]2CC[C@@]1(C(=O)O/N=C(\N)Cc1cccc(F)c1)C(=O)C2
IC50 (Influenza A virus [1]): > 318 µM
CC50 [2]: 830 µM
selectivity ratio [3]: 3

CC(C)c1noc([C@]23CC[C@H](CC2=O)C3(C)C)n1
IC50 (Influenza A virus [1]): 188 µM
CC50 [2]: 897 µM
selectivity ratio [3]: 5

CC1(C)[C@@H]2CC[C@@]1(c1nc(Cc3ccccc3F)no1)C(=O)C2
IC50 (Influenza A virus [1]): 78 µM
CC50 [2]: 394 µM
selectivity ratio [3]: 5

CC1(C)[C@@H]2CC[C@@]1(c1nc(-c3cccnc3)no1)C(=O)C2
IC50 (Influenza A virus [4]): > 1060 µM
IC50 (Influenza A virus [1]): 13 µM
CC50 [2]: > 1060 µM
selectivity ratio [3]: > 79
CC50 [5]: 1060 µM
Activity (Influenza A virus [7]): Dde
selectivity ratio [6]: 1

CC1(C)[C@@H]2CC[C@@]1(c1nc(-c3ccccc3)no1)C(=O)C2
IC50 (Influenza A virus [4]): > 117 µM
IC50 (Influenza A virus [1]): 5 µM
CC50 [2]: 198 µM
selectivity ratio [3]: 37
CC50 [5]: 199 µM
selectivity ratio [6]: 2

CC1(C)[C@@H]2CC[C@@]1(c1nc(Cc3ccc(F)cc3)no1)C(=O)C2
IC50 (Influenza A virus [1]): > 105 µM
CC50 [2]: 497 µM
selectivity ratio [3]: < 5

CC1(C)[C@@H]2CC[C@@]1(c1nc(-c3ccc(C(F)(F)F)cc3)no1)C(=O)C2
IC50 (Influenza A virus [1]): 7 µM
CC50 [2]: 32 µM
selectivity ratio [3]: 5

CC1(C)[C@@H]2CC[C@@]1(c1nc(Cc3ccc(Cl)cc3)no1)C(=O)C2
IC50 (Influenza A virus [4]): 8 µM
IC50 (Influenza A virus [1]): 36 µM
CC50 [2]: > 906 µM
selectivity ratio [3]: > 25
CC50 [5]: > 906 µM
selectivity ratio [6]: 120

CC1(C)[C@@H]2CC[C@@]1(C(=O)O/N=C(\N)c1ccccc1)C(=O)C2
IC50 (Influenza A virus [1]): 59 µM
CC50 [2]: 290 µM
selectivity ratio [3]: 5

CC1(C)[C@@H]2CC[C@@]1(C(=O)O/N=C(\N)Cc1ccc(F)cc1)C(=O)C2
IC50 (Influenza A virus [1]): > 126 µM
CC50 [2]: 244 µM
selectivity ratio [3]: < 2

CC(N)C12CC3CC(CC(C3)C1)C2 (configuration not stated) [RIMANTADINE]
IC50 (Influenza A virus [4]): 51 µM
IC50 (Influenza A virus [1]): 64 µM
CC50 [2]: 379 µM
selectivity ratio [3]: 6
selectivity ratio [6]: 7

CC1(C)[C@@H]2CC[C@@]1(c1nc(-c3ccccc3F)no1)C(=O)C2
IC50 (Influenza A virus [1]): 12 µM
CC50 [2]: 455 µM
selectivity ratio [3]: 37

CC1(C)[C@@H]2CC[C@@]1(C(=O)O/N=C(\N)Cc1ccc(Br)cc1)C(=O)C2
IC50 (Influenza A virus [1]): 12 µM
CC50 [2]: 46 µM
selectivity ratio [3]: 4

Source: ChEMBL document CHEMBL5131408, “Novel O-acylated amidoximes and substituted 1,2,4-oxadiazoles synthesised from (+)-ketopinic acid possessing potent virus-inhibiting activity against phylogenetically distinct influenza A viruses” (Bioorg Med Chem Lett, 2022)
